According to patent publication US20080275058A1, “N-Substituted-1H-Quinoline-2,4-Diones, Preparation Method Thereof, And Pharmaceutical Composition Containing The Same” (KOREA RESEARCH INSTITUTE OF CHEMICAL TECHNOLOGY, priority 2005, published 2008):
Like-named read-outs stand apart in the source and are kept apart here.

Tests used:
[1] = biological target: T1, Human serotonin 5-HT6 receptor (Homo sapiens, UniProt P50406); test: [3H]LSD binding assay on cloned 5-HT6 receptor membranes; conditions: for binding affinity at 5-HT6 receptor labeled by [3H]LSD, in words: comment on Table 2
T1 construct: made in house; host or cells: insect Sf21 cells (baculovirus vector BacPAK8)
T1 sequence (P50406 whole entry): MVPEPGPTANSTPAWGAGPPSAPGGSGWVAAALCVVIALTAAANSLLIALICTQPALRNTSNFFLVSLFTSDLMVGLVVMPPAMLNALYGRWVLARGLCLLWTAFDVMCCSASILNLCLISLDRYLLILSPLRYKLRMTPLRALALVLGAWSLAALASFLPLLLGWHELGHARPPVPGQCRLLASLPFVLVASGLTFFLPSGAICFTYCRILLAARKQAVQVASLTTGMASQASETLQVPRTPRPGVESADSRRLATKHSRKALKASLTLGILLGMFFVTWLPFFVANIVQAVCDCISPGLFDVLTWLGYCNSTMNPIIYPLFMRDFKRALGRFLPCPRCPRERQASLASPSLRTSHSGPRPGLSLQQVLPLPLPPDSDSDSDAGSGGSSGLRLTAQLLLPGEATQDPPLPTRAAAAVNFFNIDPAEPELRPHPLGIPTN

5-HT7 = biological target: T2, 5-HT7 (Homo sapiens, UniProt P34969); test: Radioligand binding, 5-HT7 ([3H]LSD); conditions: Table 4; [3H]LSD 3 nM; read-out: Binding affinity, IC50 (nM) 5-HT7
T2 construct: purchased Euroscreen/BioSignal Packard Inc
T2 sequence (P34969 whole entry): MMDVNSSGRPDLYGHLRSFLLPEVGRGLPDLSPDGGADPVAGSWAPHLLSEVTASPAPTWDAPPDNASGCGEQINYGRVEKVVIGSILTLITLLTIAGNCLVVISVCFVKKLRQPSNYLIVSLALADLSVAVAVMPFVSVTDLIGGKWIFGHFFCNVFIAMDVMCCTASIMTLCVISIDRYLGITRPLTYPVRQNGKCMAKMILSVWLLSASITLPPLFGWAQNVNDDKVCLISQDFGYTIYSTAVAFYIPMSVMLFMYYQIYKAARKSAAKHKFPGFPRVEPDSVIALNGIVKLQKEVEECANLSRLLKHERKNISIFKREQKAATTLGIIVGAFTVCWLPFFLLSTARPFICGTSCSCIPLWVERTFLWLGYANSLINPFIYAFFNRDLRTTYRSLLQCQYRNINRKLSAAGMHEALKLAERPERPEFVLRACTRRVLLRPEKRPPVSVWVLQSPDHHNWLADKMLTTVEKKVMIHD

hD4.2 receptor = biological target: T3, hD4.2 receptor (Homo sapiens, UniProt P21917, DEL265-296); test: Radioligand binding, dopamine D4 ([3H]YM-09151-2); conditions: Table 4; [3H]YM-09151-2 0.06 nM; read-out: Binding affinity, IC50 (nM) D4
T3 construct: purchased BioSignal Packard Inc., Montreal, Canada
T3 sequence (P21917 with tags, fused parts or gaps DEL265-296): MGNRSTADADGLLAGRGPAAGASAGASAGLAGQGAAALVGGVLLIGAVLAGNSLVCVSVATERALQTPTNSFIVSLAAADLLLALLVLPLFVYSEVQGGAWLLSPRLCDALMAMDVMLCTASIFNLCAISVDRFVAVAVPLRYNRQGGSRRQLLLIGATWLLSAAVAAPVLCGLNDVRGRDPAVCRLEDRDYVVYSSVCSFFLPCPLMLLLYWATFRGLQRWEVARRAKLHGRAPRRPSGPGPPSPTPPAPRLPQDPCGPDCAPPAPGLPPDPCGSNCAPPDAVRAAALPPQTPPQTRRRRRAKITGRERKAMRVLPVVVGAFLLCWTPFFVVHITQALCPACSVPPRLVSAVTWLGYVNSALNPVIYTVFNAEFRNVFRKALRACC
In short: (§1)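 IC50 values come from nonlinear fits of three displacement experiments, each using 7-8 test concentrations in duplicate. D2L and D3 membranes were labelled with 1 nM [3H]spiperone, and D4.2 with 0.06 nM [3H]YM-09151-2. All assays used pH 7.4 Tris buffers, with the D3 buffer adding 120 mM NaCl, KCl and CaCl2.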

5-HT1a = biological target: T4, 5-HT1a (Homo sapiens, UniProt P08908); test: Radioligand binding, 5-HT1a ([3H]8-OH-DPAT); conditions: Table 4; [3H]8-OH-DPAT 0.5 nM; read-out: Binding affinity, IC50 (nM) 5-HT1a
T4 construct: purchased Euroscreen/BioSignal Packard Inc
T4 sequence (P08908 1-422): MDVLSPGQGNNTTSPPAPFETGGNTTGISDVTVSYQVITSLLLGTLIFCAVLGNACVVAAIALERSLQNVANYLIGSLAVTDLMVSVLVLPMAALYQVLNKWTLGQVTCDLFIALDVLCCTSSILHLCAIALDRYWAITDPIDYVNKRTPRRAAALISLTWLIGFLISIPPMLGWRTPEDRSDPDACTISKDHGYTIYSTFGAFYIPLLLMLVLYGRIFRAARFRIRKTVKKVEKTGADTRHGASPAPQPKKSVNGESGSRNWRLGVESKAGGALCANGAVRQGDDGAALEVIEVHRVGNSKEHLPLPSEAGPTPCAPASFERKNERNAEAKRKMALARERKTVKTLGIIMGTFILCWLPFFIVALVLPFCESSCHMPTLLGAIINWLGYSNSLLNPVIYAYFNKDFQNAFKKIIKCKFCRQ
In short: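 Membranes bearing the receptor, bought in; radioligand displacement run per supplier protocol.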

D1 = D1 (Homo sapiens, UniProt P21728); test: Radioligand binding, dopamine D1; conditions: Table 4; read-out: Binding affinity, IC50 (nM) D1
Sequence of D1 (P21728 whole entry): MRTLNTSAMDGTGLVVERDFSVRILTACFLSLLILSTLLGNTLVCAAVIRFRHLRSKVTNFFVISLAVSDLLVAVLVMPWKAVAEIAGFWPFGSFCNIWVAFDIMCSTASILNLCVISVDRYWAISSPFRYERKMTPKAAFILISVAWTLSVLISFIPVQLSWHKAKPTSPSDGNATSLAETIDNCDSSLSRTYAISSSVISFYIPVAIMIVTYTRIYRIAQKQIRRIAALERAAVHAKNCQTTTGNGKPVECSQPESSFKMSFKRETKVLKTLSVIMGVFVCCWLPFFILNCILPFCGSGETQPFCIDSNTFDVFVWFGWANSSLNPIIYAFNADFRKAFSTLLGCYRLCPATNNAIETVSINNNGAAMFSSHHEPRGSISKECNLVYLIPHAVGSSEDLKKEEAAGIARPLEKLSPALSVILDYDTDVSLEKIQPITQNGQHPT

Rotarod deficit in mice = assay type: in vivo, mouse; conditions: mouse, in vivo, po, unit printed as image, read-out: TD50 (median neurotoxic dose)
Procedure: (§2) The mouse was placed on a 1 inch diameter knurled plastic rod rotating at 6 rpm (Ugo-Basile, Milano, Italy), and the rotarod deficit (%) was obtained by counting the number of animals fallen from the rotating rod within 1 min [Dunham et al., 1957] at 60, 90 and 120 min after the injection of the compound according to the invention(200, 300 or 400 ? ). […] The compounds of the examples were suspended in 3% Tween 80 solution, and were administered (p.o.) 60 min before the testing.

mice = test: Rotarod deficit in mice; assay type: in vivo, mouse
Procedure: as §2

hD3 = biological target: T5, hD3 (Homo sapiens, UniProt P35462); test: Radioligand binding, dopamine D3 ([3H]spiperone); conditions: Table 4; [3H]spiperone 1 nM; read-out: Binding affinity, IC50 (nM) D3
T5 construct: purchased BioSignal Packard Inc., Montreal, Canada
T5 sequence (P35462 whole entry): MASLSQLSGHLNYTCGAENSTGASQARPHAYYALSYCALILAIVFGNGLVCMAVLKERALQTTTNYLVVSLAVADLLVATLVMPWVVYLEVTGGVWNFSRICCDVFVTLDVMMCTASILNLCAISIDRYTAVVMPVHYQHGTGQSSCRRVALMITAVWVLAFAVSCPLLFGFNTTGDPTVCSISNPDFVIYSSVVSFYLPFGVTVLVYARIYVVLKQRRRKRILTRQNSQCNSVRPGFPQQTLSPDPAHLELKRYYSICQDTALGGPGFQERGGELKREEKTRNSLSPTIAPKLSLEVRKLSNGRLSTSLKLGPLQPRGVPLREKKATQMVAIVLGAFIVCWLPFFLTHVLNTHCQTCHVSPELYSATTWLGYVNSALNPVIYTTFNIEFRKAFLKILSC
In short: as §1

hD2L = biological target: T6, hD2L (Homo sapiens, UniProt P14416); test: Radioligand binding, dopamine D2 ([3H]spiperone); conditions: Table 4; [3H]spiperone 1 nM; read-out: Binding affinity, IC50 (nM) D2
T6 construct: purchased BioSignal Packard Inc., Montreal, Canada
T6 sequence (P14416 whole entry): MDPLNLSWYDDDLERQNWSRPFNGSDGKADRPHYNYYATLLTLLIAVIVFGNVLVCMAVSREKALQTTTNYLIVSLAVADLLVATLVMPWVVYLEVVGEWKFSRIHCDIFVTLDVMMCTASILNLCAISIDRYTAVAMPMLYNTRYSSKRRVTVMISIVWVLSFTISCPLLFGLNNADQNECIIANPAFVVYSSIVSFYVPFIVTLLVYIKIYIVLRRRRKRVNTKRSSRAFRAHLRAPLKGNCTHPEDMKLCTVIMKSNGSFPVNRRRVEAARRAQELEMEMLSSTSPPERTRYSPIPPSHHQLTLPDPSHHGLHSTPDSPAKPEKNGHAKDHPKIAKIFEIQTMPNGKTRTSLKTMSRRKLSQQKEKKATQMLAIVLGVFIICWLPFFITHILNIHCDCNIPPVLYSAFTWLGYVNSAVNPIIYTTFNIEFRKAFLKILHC
In short: as §1

5-HT2a = biological target: T7, 5-HT2a (Homo sapiens, UniProt P28223); test: Radioligand binding, 5-HT2a ([3H]Ketanserin); conditions: Table 4; [3H]Ketanserin 1 nM; read-out: Binding affinity, IC50 (nM) 5-HT2a
T7 construct: purchased Euroscreen/BioSignal Packard Inc
T7 sequence (P28223 whole entry): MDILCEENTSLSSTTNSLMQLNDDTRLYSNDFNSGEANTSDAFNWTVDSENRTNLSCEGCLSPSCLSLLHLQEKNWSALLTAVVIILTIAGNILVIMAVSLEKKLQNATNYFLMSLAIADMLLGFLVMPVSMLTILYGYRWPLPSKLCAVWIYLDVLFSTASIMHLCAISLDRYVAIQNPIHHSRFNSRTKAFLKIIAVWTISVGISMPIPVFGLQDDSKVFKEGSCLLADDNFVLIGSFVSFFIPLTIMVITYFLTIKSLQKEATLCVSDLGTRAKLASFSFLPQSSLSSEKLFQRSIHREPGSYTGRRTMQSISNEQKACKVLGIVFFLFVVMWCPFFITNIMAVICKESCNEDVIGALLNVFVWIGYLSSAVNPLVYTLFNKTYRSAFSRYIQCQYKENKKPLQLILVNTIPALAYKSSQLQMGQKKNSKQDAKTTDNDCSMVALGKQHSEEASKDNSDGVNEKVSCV

5-HT2c = biological target: T8, 5-HT2c (Homo sapiens, UniProt P28335); test: Radioligand binding, 5-HT2c ([3H]Mesulergine); conditions: Table 4; [3H]Mesulergine 1 nM; read-out: Binding affinity, IC50 (nM) 5-HT2c
T8 construct: purchased Euroscreen/BioSignal Packard Inc
T8 sequence (P28335 33-458): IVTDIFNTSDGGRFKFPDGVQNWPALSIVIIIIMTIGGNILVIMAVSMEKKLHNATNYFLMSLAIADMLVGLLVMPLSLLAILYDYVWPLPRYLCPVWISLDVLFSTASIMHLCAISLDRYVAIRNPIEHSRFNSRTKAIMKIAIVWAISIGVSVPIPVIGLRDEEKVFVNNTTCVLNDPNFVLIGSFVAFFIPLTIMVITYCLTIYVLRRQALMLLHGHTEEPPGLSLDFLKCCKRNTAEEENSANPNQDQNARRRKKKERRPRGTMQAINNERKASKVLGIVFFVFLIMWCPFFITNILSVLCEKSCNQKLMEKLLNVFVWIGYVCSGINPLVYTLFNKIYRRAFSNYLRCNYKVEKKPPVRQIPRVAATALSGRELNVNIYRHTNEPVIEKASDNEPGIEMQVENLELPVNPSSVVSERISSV

[2] = Table 2, 1.87 nM [3H]LSD, 37 C, 60 min, read-out: IC50 (nM), binding affinity to the 5-HT6 receptor
[3] = Table 4, read-out: Binding affinity, IC50 (nM) 5-HT6

SMILES | IC50 [1, 2] | IC50 [1, 3] | IC50 (5-HT7) | IC50 (hD4.2 receptor) | IC50 (5-HT1a) | IC50 (D1) | melting point | TD50 at 120 min (Rotarod deficit in mice) | Rotarod deficit (%) (mice; 200 p.o. (dose unit not given)) | Rotarod deficit (%) (mice; 300 p.o. (dose unit not given)) | Rotarod deficit (%) (mice; 400 p.o. (dose unit not given)) | IC50 (hD3) | IC50 (hD2L) | IC50 (5-HT2a) | IC50 (5-HT2c) | binding affinity at 5-HT6 receptor labeled by [3H]LSD, in words [1]
CCNc1ccc([C@]2(C)C(=O)c3c(N4CCN(C)CC4)cc(Cl)cc3N(Cc3ccccc3)C2=O)cc1 (stereo in doubt) [Example 6, 1-Benzyl-7-chloro-3-(4-ethylamino-phenyl)-3-methyl-5-(4-methyl-piperazin-1-yl)-1H-quinoline-2,4-dione] | 3.4 nM | 3.4 nM | > 1000 nM | > 10000 nM | > 10000 nM | > 1000 nM | 153 to 155 °C | > 400 mg/kg | 0% | 0% | 0% | 981 nM | > 1000 nM | > 1000 nM | > 1000 nM | –
COc1ccc(C2(C)C(=O)c3c(N4CCN(C)CC4)cc(Cl)cc3N(Cc3ccccc3)C2=O)cc1 (stereo not drawn) [Example 1, 1-Benzyl-7-chloro-3-(4-methoxy-phenyl)-3-methyl-5-(4-methyl-piperazin-1yl)-1H-quinoline-2,4-dione] | 1.9 nM | 1.9 nM | 7490 nM | 8020 nM | 4410 nM | 174 nM | 66 to 67 °C | > 400 mg/kg | 0% | 0% | 0% | 2280 nM | > 10000 nM | 1120 nM | > 10000 nM | significant affinities
CN1CCN(c2cc(Cl)cc3c2C(=O)C(C)(c2ccc(O)cc2)C(=O)N3Cc2cccc(N)c2)CC1 (stereo not drawn) [Example 10, 1-(3-Amino-benzyl)-7-chloro-3-(4-hydroxy-phenyl)-3-methyl-5-(4-methyl-piperazin-1-yl)-1H-quinoline-2,4-dione] | 6.2 nM | 6.2 nM | > 10000 nM | > 10000 nM | > 10000 nM | > 10000 nM | – | > 400 mg/kg | 0% | 0% | 0% | 5370 nM | > 10000 nM | > 10000 nM | > 10000 nM | –
COc1ccc([C@@]2(C)C(=O)c3c(N4CCNCC4)cc(Cl)cc3N(Cc3ccccc3)C2=O)cc1 [Example 13-1, (S)-1-Benzyl-7-chloro-3-(4-methoxy-phenyl)-3-methyl-5-piperazin-1-yl-1H-quinoline-2,4-dione] | 1.4 nM | 1.4 nM | 5850 nM | > 10000 nM | 5430 nM | 6150 nM | – | > 400 mg/kg | 0% | 0% | 0% | 8930 nM | > 10000 nM | 2510 nM | 7740 nM | significant affinities
